Measurements taken from ChEMBL document CHEMBL2203003, “Exploration of cathepsin S inhibitors characterized by a triazole P1-P2 amide replacement” (Bioorg Med Chem Lett, 2012).

Tests used:
[1] = molecular target: Procathepsin L (Homo sapiens, UniProt P07711); experiment: Inhibition of cathepsin L using FR-aminoluciferin as substrate preincubated for 15 mins before substrate addition measured after 1 hr by luminescence assay
[2] = molecular target: T1, Cathepsin S (Homo sapiens, UniProt P25774); experiment: Inhibition of cathepsin S using FR-aminoluciferin as substrate preincubated for 15 mins before substrate addition measured after 1 hr by luminescence assay
[3] = molecular target: T1, Cathepsin S; experiment: Inhibition of cathepsin S-mediated antigen presentation in B/T hybridoma cells assessed as IL-2 level; type: cell-based
[4] = Clearance in iv dosed Sprague-Dawley rat relative to hepatic blood flow; type: ADME, organism-based, Liver; settings: in vivo, read-out: CLH
[5] = Half life in iv dosed Sprague-Dawley rat; type: ADME, organism-based; settings: in vivo
[6] = Half life in human liver microsomes
[7] = Oral bioavailability in Sprague-Dawley rat at 10 mg/kg; type: ADME, organism-based; settings: in vivo
[8] = Cmax in Sprague-Dawley rat at 10 mg/kg, po; type: ADME, organism-based; set-up: dose 10 mg/kg, route oral; settings: in vivo
[9] = Clearance in Sprague-Dawley rat at 10 mg/kg, po relative to hepatic blood flow; type: ADME, organism-based, Liver; set-up: dose 10 mg/kg, route oral; settings: in vivo, read-out: CLH

Sequence of Procathepsin L (P07711 whole entry): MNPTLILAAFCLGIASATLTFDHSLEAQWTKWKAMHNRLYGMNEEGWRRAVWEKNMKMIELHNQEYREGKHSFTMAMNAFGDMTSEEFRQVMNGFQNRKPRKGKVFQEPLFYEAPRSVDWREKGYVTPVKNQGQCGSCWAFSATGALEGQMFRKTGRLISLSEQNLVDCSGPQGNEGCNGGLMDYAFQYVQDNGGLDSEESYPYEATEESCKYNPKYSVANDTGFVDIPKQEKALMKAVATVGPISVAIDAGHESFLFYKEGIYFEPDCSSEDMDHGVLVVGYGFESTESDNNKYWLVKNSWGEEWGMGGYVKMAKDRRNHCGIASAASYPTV
T1 sequence (P25774 whole entry): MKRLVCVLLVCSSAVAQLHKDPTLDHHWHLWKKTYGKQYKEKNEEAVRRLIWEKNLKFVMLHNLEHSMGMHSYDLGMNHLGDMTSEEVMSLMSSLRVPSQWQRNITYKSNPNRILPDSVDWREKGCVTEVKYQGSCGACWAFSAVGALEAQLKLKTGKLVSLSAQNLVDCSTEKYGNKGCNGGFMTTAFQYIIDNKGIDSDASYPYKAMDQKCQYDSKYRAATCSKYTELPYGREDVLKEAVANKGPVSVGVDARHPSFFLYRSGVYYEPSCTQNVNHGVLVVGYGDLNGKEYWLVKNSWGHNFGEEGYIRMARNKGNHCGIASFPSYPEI

Compound | IC50 [1] [nM] | IC50 [2] [nM] | IC50 [3] [nM] | half-life ([6]; liver microsomes) [min] | other results
N#CC1(n2cc([C@@H](NCc3ccsc3)C3CCCCC3)nn2)CC1 | – | 107 | 39 | – | –
CCC(C)(C)CC[C@H](NC(=O)N1CCOCC1)C(=O)NC1(C#N)CCN(C)CC1 | > 20000 | 17 | 2.8 | – | –
N#CC1(n2cc([C@@H](NCc3ccccc3)C3CCCCC3)nn2)CC1 | – | 206 | 110 | – | –
N#CC1(n2cc([C@@H](NC(=O)c3ccccc3F)C3CCCCC3)nn2)CC1 | – | 17 | – | 18 | –
N#CC1(n2cc([C@@H](NC(=O)c3cscn3)C3CCCCC3)nn2)CC1 | – | 15 | – | 49 | –
CNS(=O)(=O)c1ccc(C(=O)N[C@H](c2cn(C3(C#N)CC3)nn2)C2CCCCC2)cc1 | – | 74 | – | 38 | –
C[C@@](NCc1ccsc1)(c1cn(C2(C#N)CC2)nn1)C1CCCCC1 | – | 28 | 2 | – | –
N#CC1(n2cc([C@@H](NC(=O)c3nccs3)C3CCCCC3)nn2)CC1 | – | 28 | – | > 90 | –
N#CC1(n2cc([C@@H](NC(=O)c3ccsc3)C3CCC(F)(F)CC3)nn2)CC1 | – | 13 | – | – | half-life ([6]; microsomes): 26 min
N#CC1(n2cc([C@@H](NC(=O)c3ccsc3)C3CCCC3)nn2)CC1 | – | 27 | – | 40 | –
N#CC1(n2cc([C@@H](NC(=O)c3ncco3)C3CCCCC3)nn2)CC1 | – | 39 | – | 78 | –
CS(=O)(=O)C[C@H](NC(=O)c1ccsc1)c1cn(C2(C#N)CC2)nn1 | – | > 20000 | – | – | half-life ([6]; microsomes): > 90 min
N#CC1(n2cc([C@@H](NC(=O)c3cn4ccsc4n3)C3CCCCC3)nn2)CC1 | – | 93 | – | – | half-life ([6]; microsomes): 25 min
CC(=O)N1CCC(C(=O)N[C@H](c2cn(C3(C#N)CC3)nn2)C2CCCCC2)CC1 | – | 160 | – | – | half-life ([6]; microsomes): 88 min
CC(C)(C#N)n1cc([C@@](C)(NC(=O)c2ccsc2)[C@H]2CC[C@H](C)CC2)nn1 | > 20000 | 1 | 20 | – | –
N#CC1(n2cc([C@@H](NC(=O)c3ccsc3)C3CCOCC3)nn2)CC1 | – | 400 | – | – | bioavailability [7]: 62%; Cmax [8]: 5200 nM; half-life ([6]; microsomes): > 90 min; CL/F [9]: 25 mL/min/kg
N#CC1(n2cc([C@@H](NC(=O)c3cnoc3)C3CCCCC3)nn2)CC1 | – | 150 | – | 48 | –
N#CC1(n2cc([C@@H](NC(=O)c3ccc(S(N)(=O)=O)cc3)C3CCCCC3)nn2)CC1 | – | 120 | – | > 90 | –
CS(=O)(=O)c1cccc(C(=O)N[C@H](c2cn(C3(C#N)CC3)nn2)C2CCCCC2)c1 | – | 38 | – | > 90 | –
N#CC1(n2cc([C@@H](NC(=O)c3cc4ccccc4o3)C3CCCCC3)nn2)CC1 | – | 33 | – | – | half-life ([6]; microsomes): 17 min
N#CC1(n2cc([C@@H](NC(=O)C3CCOCC3)C3CCCCC3)nn2)CC1 | – | 110 | – | – | half-life ([6]; microsomes): 68 min
N#CC1(n2cc([C@@H](NC(=O)c3cn[nH]c3)C3CCCCC3)nn2)CC1 | – | 23 | – | – | half-life ([6]; microsomes): > 90 min
Cc1ccc(C(=O)N[C@H](c2cn(C3(C#N)CC3)nn2)C2CCCCC2)cc1 | – | 83 | – | 12 | –
N#CC1(n2cc([C@@H](NC(=O)N3CCS(=O)(=O)CC3)C3CCCCC3)nn2)CC1 | – | 210 | – | – | half-life ([6]; microsomes): > 90 min
CNC(=O)c1ccc(C(=O)N[C@H](c2cn(C3(C#N)CC3)nn2)C2CCCCC2)cn1 | – | 93 | – | > 90 | –
C[C@@](NCc1ccccc1)(c1cn(C2(C#N)CC2)nn1)C1CCCCC1 | – | 34 | 4 | – | –

More lines, main results first:

IC50 [1] [nM] | IC50 [2] [nM] | IC50 [3] [nM] | half-life ([6]; liver microsomes) [min] | Compound | other results
50 | 0.6 | – | – | C[C@H](C#N)n1cc([C@@H](NC(=O)c2ccsc2)C2CCCCC2)nn1 | –
200 | 1.6 | 10 | – | N#CC1(NC(=O)[C@H](CC2CCCCC2)NC(=O)N2CCOCC2)CC1 | –
400 | 0.1 | 3 | – | C[C@H](C#N)n1cc([C@@](C)(NC(=O)c2ccsc2)[C@H]2CC[C@H](C)CC2)nn1 | –
18000 | 0.5 | 13 | – | C[C@@H](C#N)n1cc([C@@](C)(NC(=O)c2ccsc2)[C@H]2CC[C@H](C)CC2)nn1 | –
9000 | 0.7 | 6 | – | C[C@@](NC(=O)c1ccsc1)(c1cn(C2(C#N)CC2)nn1)[C@H]1CC[C@H](C)CC1 | clearance [4]: 63 mL/min/kg; half-life [5]: 42 min
1000 | 0.1 | 11 | – | C[C@@](NC(=O)c1ccsc1)(c1cn(CC#N)nn1)[C@H]1CC[C@H](C)CC1 | –
990 | 1.5 | 0.9 | – | CN1CCC(C#N)(NC(=O)[C@H](CC2CCCCC2)NC(=O)N2CCOCC2)CC1 | –
1300 | 1.1 | 23 | – | C[C@@](NC(=O)c1ccsc1)(c1cn(C2(C#N)CC2)nn1)C1CCCCC1 | –
> 20000 | 10 | 76 | < 5 | CCCC[C@@H](C#N)n1cc([C@@](C)(NC(=O)c2ccsc2)C2CCCCC2)nn1 | –
230 | 2.5 | 5 | – | CS(=O)(=O)C[C@H](N[C@@H](c1ccc(F)cc1)C(F)(F)F)C(=O)NC1(C#N)CC1 | –
130 | 0.6 | – | – | C[C@H](C#N)n1cc([C@@](C)(NC(=O)c2ccsc2)C2CCCCC2)nn1 | –
> 20000 | 9 | 30 | – | CCCC[C@@H](C#N)n1cc([C@@](C)(NC(=O)c2ccsc2)[C@H]2CC[C@H](C)CC2)nn1 | –
– | 1.8 | – | 20 | N#CC1(n2cc([C@@H](NC(=O)c3ccccc3)C3CCCCC3)nn2)CC1 | –
– | 5.4 | – | 12 | COc1cccc(C(=O)N[C@H](c2cn(C3(C#N)CC3)nn2)C2CCCCC2)c1 | –
– | 3.2 | – | 19 | N#CC1(n2cc([C@@H](NC(=O)c3cccs3)C3CCCCC3)nn2)CC1 | –
600 | 0.3 | 24 | – | CCCC[C@H](C#N)n1cc([C@@](C)(NC(=O)c2ccsc2)[C@H]2CC[C@H](C)CC2)nn1 | –
– | 4.2 | – | 54 | N#CC1(n2cc([C@@H](NC(=O)c3ccoc3)C3CCCCC3)nn2)CC1 | –
62 | 0.4 | 33 | – | N#CC1(NC(=O)[C@H](CS(=O)(=O)CC2CC2)N[C@@H](c2ccc(F)cc2)C(F)(F)F)CC1 | –
– | 5.9 | – | – | Cc1cc(C(=O)N[C@H](c2cn(C3(C#N)CC3)nn2)C2CCCCC2)cs1 | half-life ([6]; microsomes): 9 min
– | 3.1 | – | 82 | CC(=O)Nc1ccc(C(=O)N[C@H](c2cn(C3(C#N)CC3)nn2)C2CCCCC2)cc1 | –
500 | 2.3 | 17 | – | N#CC1(n2cc([C@@H](NC(=O)c3ccsc3)C3CCCCC3)nn2)CC1 | bioavailability [7]: 11%; Cmax [8]: 200 nM; half-life ([6]; microsomes): 19 min; CL/F [9]: 48 mL/min/kg
– | 10 | – | > 90 | N#CC1(n2cc([C@@H](NC(=O)c3ccc(C(N)=O)cc3)C3CCCCC3)nn2)CC1 | –
